Patent US10774071B2, “PD-1/PD-L1 inhibitors” (Gilead Sciences, Inc., priority 2018, dated 2020)

Columns and labels:
PD-1/PD-L1 = PD-1/PD-L1 (Homo sapiens (Human), UniProt Q9NZQ7); test: PD-1/PD-L1 biochemical protein-protein interaction assay (ALPHA); type: binding; details: 0.3 nM His tagged PD-L1, 2.5 nM biotinylated Fc-PD-1, readings of 0.064 nM are equal to or less than 0.064 nM, read-out: IC50 PD-L1-PD1
Procedure: Compounds were tested in biochemical protein-protein interaction assays to determine if they can specifically block the interaction between the extracellular domains of PD-1/PD-L1 or CTLA/CD80. Binding of the protein pairs is measured using a bead based Amplified Luminescent Proximity Homogeneous Assay (ALPHA) platform. […] Final protein concentration in the assays were 0.3 nM (His tagged PD-L1), 2.5 nM (biotinylated Fc-PD-1), 1 nM (His tagged CTLA4) and 1 nM (biotinylated CD80).

PD-L1 = PD-L1 (Homo sapiens (Human), UniProt Q9NZQ7); test: PD-L1/PD-L1 dimerization biochemical protein-protein interaction assay (ALPHA); type: binding; details: 0.5 nM His tagged PD-L1 and 0.5 nM FLAG tagged PD-L1, Table 4A, read-out: AC50 PDL1 Dimer 1 nM
Chain of PD-L1 (Q9NZQ7 19-238): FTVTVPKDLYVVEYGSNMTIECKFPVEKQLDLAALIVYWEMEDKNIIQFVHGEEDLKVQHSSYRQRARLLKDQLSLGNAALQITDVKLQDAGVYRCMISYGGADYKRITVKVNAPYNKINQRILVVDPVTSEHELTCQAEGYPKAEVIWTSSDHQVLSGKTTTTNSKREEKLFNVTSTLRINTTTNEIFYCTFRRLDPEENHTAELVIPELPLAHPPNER
Chain of PD-L1 (Q9NZQ7 19-238): as above

Chain of PD-1/PD-L1 (Q9NZQ7 19-238): as above

| SMILES | IC50 (PD-1/PD-L1) [nM] | AC50 (PD-L1) [nM] |
| --- | --- | --- |
| COc1nc(-c2cccc(-c3cccc4c3CC[C@@H]4Nc3nc(OC)c(CN[C@@H](C)C(=O)O)nc3C(F)(F)F)c2Cl)ccc1CNC[C@H]1C[C@](C)(O)C1 [A-86] | ≤ 0.064 | 29.2 |
| COc1nc(-c2cccc(-c3cccc4c3CC[C@@H]4Nc3nc(OC)c(CNCC(=O)O)nc3C(F)(F)F)c2Cl)ccc1CNC[C@H]1C[C@](C)(O)C1 [A-87] | ≤ 0.064 | 22.3 |
| CNC(=O)CNCc1nc(C(F)(F)F)c(N[C@H]2CCc3c(-c4cccc(-c5ccc(CNC[C@@H]6CCC(=O)N6)c(OC)n5)c4Cl)cccc32)nc1OC [A-88] | 0.202 | 60.4 |
| COc1nc(-c2cccc(-c3cccc4c3CC[C@@H]4Nc3nc(OC)c(CNCCC(=O)O)cc3C(F)(F)F)c2Cl)ccc1CN[C@H]1C[C@](C)(O)C1 [A-89] | 0.072 | 81.8 |
| COc1nc(-c2cccc(-c3cccc4c3CC[C@@H]4Nc3nc(OC)c(CN[C@H](C(=O)O)C4CC4)cc3C(F)(F)F)c2Cl)ccc1CN[C@H]1C[C@](C)(O)C1 [A-90] | ≤ 0.064 | 21.6 |
| COC[C@H](NCc1cc(C(F)(F)F)c(N[C@H]2CCc3c(-c4cccc(-c5ccc(CN[C@H]6C[C@](C)(O)C6)c(OC)n5)c4Cl)cccc32)nc1OC)C(=O)O [A-91] | ≤ 0.064 | 42.7 |
| COc1nc(-c2cccc(-c3cccc4c3CC[C@@H]4Nc3nc(OC)c(CNC(C)(C)C(=O)O)cc3C(F)(F)F)c2Cl)ccc1CN[C@H]1C[C@](C)(O)C1 [A-92] | ≤ 0.064 | 15.1 |
| COc1nc(-c2cccc(-c3cccc4c3CC[C@@H]4Nc3nc(OC)c(CNCCC(=O)O)nc3C(F)(F)F)c2Cl)ccc1CN[C@H]1C[C@](C)(O)C1 [A-93] | ≤ 0.064 | 83 |
| COc1nc(-c2cccc(-c3cccc4c3CC[C@@H]4Nc3nc(OC)c(CN[C@H](C(=O)O)C4CC4)nc3C(F)(F)F)c2Cl)ccc1CN[C@H]1C[C@](C)(O)C1 [A-94] | ≤ 0.064 | 20.7 |
| COc1nc(-c2cccc(-c3cccc4c3CC[C@@H]4Nc3nc(OC)c(CNC(C)(C)C(=O)O)nc3C(F)(F)F)c2Cl)ccc1CN[C@H]1C[C@](C)(O)C1 [A-95] | ≤ 0.064 | 21.2 |
| COc1nc(-c2cccc(-c3cccc4c3CC[C@@H]4Nc3nc(OC)c(CN(C)[C@@H](C)C(=O)O)nc3C(F)(F)F)c2Cl)ccc1CNC[C@@H]1CCC(=O)N1 [A-96] | ≤ 0.064 | 3.97 |
| COc1nc(-c2cccc(-c3cccc4c3CC[C@@H]4Nc3nc(OC)c(CN[C@@H](C)C(=O)N(C)C)nc3C(F)(F)F)c2Cl)ccc1CNC[C@@H]1CCC(=O)N1 [A-97] | ≤ 0.064 | 6.28 |
| COc1nc(-c2cccc(-c3cccc4c3CC[C@@H]4Nc3nc(OC)c(CN[C@@H](C)C(N)=O)cc3C(F)(F)F)c2Cl)ccc1CNC[C@@H]1CCC(=O)N1 [A-98] | ≤ 0.064 | 40.3 |
| COC(=O)[C@H](C)NCc1nc(C(F)(F)F)c(N[C@H]2CCc3c(-c4cccc(-c5ccc(CNC[C@@H]6CCC(=O)N6)c(OC)n5)c4Cl)cccc32)nc1OC [A-99] | 0.397 | 110 |
| COC[C@H](NCc1nc(C(F)(F)F)c(N[C@H]2CCc3c(-c4cccc(-c5ccc(CNC[C@@H]6CCC(=O)N6)c(OC)n5)c4Cl)cccc32)nc1OC)C(=O)O [A-100] | ≤ 0.064 | 7.11 |
| COc1nc(-c2cccc(-c3cccc4c3CC[C@@H]4Nc3nc(OC)c(CN[C@H](C(=O)O)C4CC4)nc3C(F)(F)F)c2Cl)ccc1CNC[C@@H]1CCC(=O)N1 [A-101] | ≤ 0.064 | 3.9 |
| COc1nc(-c2cccc(-c3cccc4c3CC[C@@H]4Nc3nc(OC)c(CN[C@@H](C)C(N)=O)nc3C(F)(F)F)c2Cl)ccc1CNC[C@@H]1CCC(=O)N1 [A-102] | ≤ 0.064 | 43.1 |
| COc1nc(-c2cccc(-c3cccc4c3CC[C@@H]4Nc3nc(OC)c(CNCC(N)=O)nc3C(F)(F)F)c2Cl)ccc1CNC[C@@H]1CCC(=O)N1 [A-103] | ≤ 0.064 | 40.2 |
| CC[C@H](NCc1nc(C(F)(F)F)c(N[C@H]2CCc3c(-c4cccc(-c5ccc(CNC[C@@H]6CCC(=O)N6)c(OC)n5)c4Cl)cccc32)nc1OC)C(=O)O [A-104] | ≤ 0.064 | 16.6 |
| COc1nc(-c2cccc(-c3cccc4c3CC[C@@H]4Nc3nc(OC)c(CN[C@H](C(=O)O)C(C)C)nc3C(F)(F)F)c2Cl)ccc1CNC[C@@H]1CCC(=O)N1 [A-105] | ≤ 0.064 | 40.6 |
| COc1nc(-c2cccc(-c3cccc4c3CC[C@@H]4Nc3nc(OC)c(CN[C@@H](C)C(=O)O)nc3C(F)(F)F)c2Cl)ccc1CNC[C@@H]1CCC(=O)N1 [A-106] | ≤ 0.064 | 5.04 |
| COc1nc(-c2cccc(-c3cccc4c3CC[C@@H]4Nc3nc(OC)c(CNCC(=O)O)nc3C(F)(F)F)c2Cl)ccc1CNC[C@@H]1CCC(=O)N1 [A-107] | ≤ 0.064 | 8.64 |
